Laboratory results taken from patent US5484804A, “Perhydroisoindole derivatives as antagonists of substance P” (Rhone-Poulenc Rorer S.A., priority 1992, dated 1996).

Assays:
Assay type in all cases: in vivo
[1] = system: bronchospasm induced by [Pro^9 ] substance P; test: inhibition of bronchospasm induced by [Pro9] substance P; conditions: Cavia porcellus, iv; guinea-pig, bronchospasm induced by 3 μg/kg i.v. of [Pro9] substance P; read-out: ED50, dose which reduces by 50% the bronchospasm
Excerpt: Injection of substance P causes a bronchospasm in the animal. The bronchoconstriction induced in vivo in the guinea-pig by injection of substance P or a selective agonist of substance P:. [Pro^9 ] substance P, is studied by the technique of H. Konzett and R. Rosseler, Archiv. Exp. Path. Pharmak., 195, 71-74 (1940). This bronchoconstriction is inhibited by injection of a product according to the invention, which is evidence of an antiasthmatic activity. The ED50, the dose which reduces by 50% the bronchospasm induced by 3 μg/kg i.v. of [Pro^9 ] substance P, is determined. In this technique, the ED50 of the product of Example 1 is 0.7 mg/kg i.v.

[2] = system: hypotension induced by substance P; test: antagonism of hypotension induced by substance P; conditions: Cavia porcellus, iv; guinea-pig, hypotension induced by i.v. injection of 250 ng/kg of substance P; read-out: ED50, dose which reduces by 50% the hypotension
Method: Injection of substance P in animals causes hypotension. The products studied by the technique of C. A. Maggi et al., J. Auton. […] The ED50, the dose which reduces by 50% the hypotension induced by an i.v. injection of 250 ng/kg of substance P, is determined.

formalin pain = formalin pain test; conditions: Cavia porcellus, po; guinea-pig, administered perorally 1 hour before the test
[3] = system: increase in capillary permeability caused by septide (agonist of substance P); test: inhibition of the increase in capillary permeability caused by septide; conditions: Cavia porcellus, guinea-pig
Excerpt: The study of some isoindole derivatives of the general formula (I) by the technique of A. Saria et al., Arch.

Work on `COc1ccccc1[C@H](C)C(=O)N1C[C@@H]2[C@H](C1)C(c1ccccc1)(c1ccccc1)CC[C@@]2(O)c1ccccc1OC` [Example 1, (3aS,4S,7aS)-7,7-diphenyl-4-(2-methoxyphenyl)-2-[(S)-2-(2methoxyphenyl)propionyl]perhydroisoindol-4-ol] yielded an ED50 [1] of 0.7 mg/kg, an ED50 [2] of 0.15 mg/kg and an ED50 (formalin pain) of 11 mg/kg. The ED50 ([3]; iv) was 0.04 mg/kg and the ED50 ([3]; po) was 3.5 mg/kg.
